Reference: patent US12528814B2, “Bifunctional degraders of interleukin-1 receptor-associated kinases and therapeutic use thereof” (NURIX THERAPEUTICS, INC., priority 2020, dated 2026)
“Also recorded” adds a separate entry of the source. Where two headings read alike, the source gives them in different places.

Tests used:
IRAK1 = IRAK1 (Homo sapiens (Human), UniProt P51617); experiment: Western Assay for IRAK1 Degradation; assay type: cell-based; details: wild-type Jurkat cells, 4 hrs
Method: (§1) Biological Example 4 Western Assay for IRAK4, IRAK1 and GSPT1 Degradation
(§2) DMSO was stamped into wells A12-H12 at 500 nL/well (NC, Negative Control, maximum signal). […] Following incubation, plates were centrifuged for 5 min at 1600 rpm. Media was removed and cell pellets were lysed in 50 μL lysis buffer (RIPA buffer (Fisher, PI89901), cOmplete Mini EDTA-free protease inhibitor (Sigma 11836170001), Protease Inhibitor Cocktail (Sigma, P2714), Phosphatase Inhibitor Cocktail 2 and 3 (Sigma, P5726 and P0044), Benzonase (Sigma, E1014)). Cells were lysed overnight at −20° C. Plates were centrifuged for 5 min at 1600 rpm and lysate supernatants were transferred to storage plates. Protein levels were determined by BCA Assay performed according to manufacturer's protocol (EMD Millipore, cat. no. 71285-3). Samples were combined with (4×) LDS Sample Buffer and (10×) Reducing Agent and H2O to equally load 10 ug protein per lane of a 26-well NuPAGE 4-12% Bis-Tris protein gel (1.0 mm, Thermo cat. no. NP0326). Samples were separated by running gels at constant 200 V in NuPAGE MES SDS Running Buffer. Following electrophoresis, proteins were transferred to nitrocellulose membranes using an iBlot Gel Transfer Device and iBlot Gel Transfer Stacks (Thermo cat. no. IB21001 and IB301001) and transfer method PO (20V 1 min, 23V 4 min, 25V 2 min). Membranes were blocked for 1 hr in 5% milk solution (TBS (0.2% Tween-20)).
(§3) Following blocking, membranes were incubated with primary antibody overnight at 4° C. with gentle shaking. The primary antibodies and dilutions used were as follows: IRAK4—abcam ab3200612, 1:500; IRAK1—Cell Signaling Technologies D51G7 #4504, 1:500; GSPT1—Cell Signaling Technologies #14980, 1:500). Blots were washed 3× in TBS (0.2% Tween-20), 5-10 min per wash. Following washes, blots were incubated in secondary HRP-conjugated antibody (Promega anti-Rabbit IgG (H+L) HRP, cat. no. W4011), 1:5000 in 5% milk solution (TBS (0.2% Tween-20)), for 1 hr at room temperature with gentle shaking. Blots were washed 3× in TBS (0.2% Tween-20), 5-10 min per wash. Blots were incubated with 1:1 mix of ECL reagents 1 & 2 (Amersham ECL Western Blotting Detection Reagent, cat. no. RPN2106) for 2-3 min at room temperature. Bands were visualized using a Protein Simple imager. Blots were then re-probed with a combination of anti-actin antibody (Sigma Monoclonal Mouse Anti-3-Actin (clone AC-15), cat. no. A5441) and secondary HRP-conjugated antibody (Promega anti-Mouse IgG (H+L) HRP, cat. no. W4021) and similar steps were taken for incubation, wash, detection and visualization steps as above. The data was analyzed using Alpha View software. The densitometric reading for each sample band was normalized to that of the corresponding actin band per lane.

GSPT1 = GSPT1 (Homo sapiens (Human), UniProt P15170+Q96SW2); experiment: Western Assay for GSPT1 Degradation; assay type: cell-based; details: wild-type Jurkat cells, 24 hrs
GSPT1, sequence (P15170 whole entry): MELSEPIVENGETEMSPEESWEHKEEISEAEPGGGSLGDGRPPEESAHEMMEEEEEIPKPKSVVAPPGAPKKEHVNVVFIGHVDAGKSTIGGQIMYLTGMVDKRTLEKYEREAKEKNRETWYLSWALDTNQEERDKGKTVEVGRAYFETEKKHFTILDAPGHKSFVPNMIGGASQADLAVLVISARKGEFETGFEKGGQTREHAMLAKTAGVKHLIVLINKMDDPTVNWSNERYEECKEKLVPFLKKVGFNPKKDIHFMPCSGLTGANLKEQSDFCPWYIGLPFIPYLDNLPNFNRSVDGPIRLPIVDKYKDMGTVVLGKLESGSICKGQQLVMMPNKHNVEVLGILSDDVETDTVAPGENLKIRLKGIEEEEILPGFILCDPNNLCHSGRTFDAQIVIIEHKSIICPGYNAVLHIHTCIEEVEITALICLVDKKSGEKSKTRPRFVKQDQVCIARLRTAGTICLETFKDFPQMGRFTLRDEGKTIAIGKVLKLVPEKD
GSPT1, sequence (Q96SW2 whole entry): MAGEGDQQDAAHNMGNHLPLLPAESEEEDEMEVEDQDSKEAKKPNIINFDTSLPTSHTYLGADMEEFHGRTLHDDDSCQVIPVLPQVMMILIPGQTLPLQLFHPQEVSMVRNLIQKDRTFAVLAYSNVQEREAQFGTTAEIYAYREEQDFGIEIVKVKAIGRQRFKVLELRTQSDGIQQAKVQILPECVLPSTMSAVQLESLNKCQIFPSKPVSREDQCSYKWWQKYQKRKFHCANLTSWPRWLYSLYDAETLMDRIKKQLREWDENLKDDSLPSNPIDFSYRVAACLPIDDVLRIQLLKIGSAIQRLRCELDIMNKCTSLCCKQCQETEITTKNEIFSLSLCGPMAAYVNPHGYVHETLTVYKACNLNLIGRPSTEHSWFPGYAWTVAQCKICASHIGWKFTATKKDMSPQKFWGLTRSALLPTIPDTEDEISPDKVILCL
GSPT1, sequence (Q16531 whole entry partner): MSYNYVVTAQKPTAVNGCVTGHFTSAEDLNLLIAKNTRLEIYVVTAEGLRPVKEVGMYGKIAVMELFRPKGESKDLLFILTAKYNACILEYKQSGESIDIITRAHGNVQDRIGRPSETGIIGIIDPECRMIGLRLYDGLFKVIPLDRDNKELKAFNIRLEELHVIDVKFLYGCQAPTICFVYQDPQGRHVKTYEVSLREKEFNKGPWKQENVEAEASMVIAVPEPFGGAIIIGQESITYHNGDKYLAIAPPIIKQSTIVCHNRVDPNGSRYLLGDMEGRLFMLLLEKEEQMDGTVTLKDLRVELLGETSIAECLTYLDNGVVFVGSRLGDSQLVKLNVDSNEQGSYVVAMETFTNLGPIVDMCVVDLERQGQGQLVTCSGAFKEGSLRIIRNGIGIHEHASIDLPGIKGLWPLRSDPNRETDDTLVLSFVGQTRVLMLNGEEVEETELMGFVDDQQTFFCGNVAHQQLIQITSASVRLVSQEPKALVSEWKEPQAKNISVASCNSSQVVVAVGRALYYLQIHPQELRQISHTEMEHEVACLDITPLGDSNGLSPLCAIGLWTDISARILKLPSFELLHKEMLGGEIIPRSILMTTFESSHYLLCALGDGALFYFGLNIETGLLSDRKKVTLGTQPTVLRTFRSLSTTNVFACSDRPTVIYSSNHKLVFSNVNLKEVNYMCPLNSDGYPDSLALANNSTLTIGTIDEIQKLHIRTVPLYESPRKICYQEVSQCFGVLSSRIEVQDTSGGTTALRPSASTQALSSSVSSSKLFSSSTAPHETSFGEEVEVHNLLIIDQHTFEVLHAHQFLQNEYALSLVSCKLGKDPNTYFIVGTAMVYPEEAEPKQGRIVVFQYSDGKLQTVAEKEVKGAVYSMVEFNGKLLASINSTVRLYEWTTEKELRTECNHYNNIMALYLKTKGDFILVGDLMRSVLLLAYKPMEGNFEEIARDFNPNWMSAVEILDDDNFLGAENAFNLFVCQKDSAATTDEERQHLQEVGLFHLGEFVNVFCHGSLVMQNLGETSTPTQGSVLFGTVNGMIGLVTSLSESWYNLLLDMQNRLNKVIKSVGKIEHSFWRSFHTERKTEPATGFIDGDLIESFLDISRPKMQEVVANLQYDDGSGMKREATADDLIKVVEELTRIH
Method: as §1, §2, §3

Ikaros = Ikaros (Homo sapiens (Human), UniProt Q13422+Q96SW2); experiment: Flow Cytometry-Based Assay for Ikaros Degradation; assay type: cell-based; details: 24 hours; for DC50: Jurkat cells (Clone E6-1); for Ikaros (CRBN neosubstrate) degradation, in words: Jurkat cells
Ikaros, sequence (Q13422 whole entry): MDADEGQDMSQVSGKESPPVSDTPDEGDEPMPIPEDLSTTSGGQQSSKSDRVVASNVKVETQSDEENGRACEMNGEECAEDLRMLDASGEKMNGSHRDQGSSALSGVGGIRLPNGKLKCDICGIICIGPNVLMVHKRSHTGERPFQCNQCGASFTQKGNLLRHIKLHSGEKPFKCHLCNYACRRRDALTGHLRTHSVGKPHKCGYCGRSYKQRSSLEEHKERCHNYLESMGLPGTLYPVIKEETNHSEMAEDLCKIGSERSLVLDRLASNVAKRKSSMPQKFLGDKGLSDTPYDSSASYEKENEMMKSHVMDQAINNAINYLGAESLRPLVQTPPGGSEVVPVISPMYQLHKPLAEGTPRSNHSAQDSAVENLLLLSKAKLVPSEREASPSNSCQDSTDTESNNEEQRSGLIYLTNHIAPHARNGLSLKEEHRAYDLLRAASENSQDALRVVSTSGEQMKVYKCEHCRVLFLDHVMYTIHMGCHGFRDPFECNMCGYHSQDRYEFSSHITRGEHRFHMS
Ikaros, sequence (Q96SW2 whole entry): as the sequence (Q96SW2 whole entry) above
Ikaros, sequence (Q16531 whole entry partner): as the sequence (Q16531 whole entry partner) above
Method: Flow Cytometry-Based Assay for Aiolos and Ikaros Degradation
Jurkat cells (Clone E6-1) were treated with DMSO or compound for 24 hours and then fixed and permeabilized using a Foxp3/Transcription Factor Fixation/Permeabilization Kit (eBioscience, cat. no. 00-5523). Cells were stained with fluorophore-conjugated antibodies against Ikaros (Biolegend 368414) and Aiolos (Biolegend, cat. no. 371106). An additional set of DMSO-treated cells was stained with fluorophore-conjugated isotype control antibodies (Biolegend, cat. no. 400254 and 400136). Stained cells were run on an Attune N×T Acoustic Focusing Flow Cytometer (Thermo-Fisher, cat. no. A29004), and data was analyzed using FlowJo (v10.5.3) and GraphPad Prism (v7.00) software. Single cells were gated, and the geometric mean fluorescence intensities (MFIs) of Ikaros and Aiolos were calculated. The MFI of the isotype control was calculated for each analyte and used to quantify background staining. Percent Ikaros or Aiolos degradation was calculated for each compound-treated sample using the following equation: % Degradation=[…]

Jurkat cells = experiment: Viability Assay (Celltiter-Glo); assay type: cell-based; details: Homo sapiens, 4 hrs, read-out: Viability assessment EC50
Method: Viability Assay (Celltiter-Glo)
DMSO was stamped into empty wells at 60 nL/well (NC, Negative Control, maximum signal). […] Following incubation, the CellTiter-Glo assay was performed according to manufacturer's instructions (Promega CellTiter-Glo Luminescent Cell Viability Assay, cat. no. G7570).

IRAK4 = IRAK4 (Homo sapiens (Human), UniProt Q9NWZ3); experiment: IRAK4 Degradation HiBiT Assay; details: for Dmax: Jurkat
IRAK4, sequence (Q9NWZ3 whole entry): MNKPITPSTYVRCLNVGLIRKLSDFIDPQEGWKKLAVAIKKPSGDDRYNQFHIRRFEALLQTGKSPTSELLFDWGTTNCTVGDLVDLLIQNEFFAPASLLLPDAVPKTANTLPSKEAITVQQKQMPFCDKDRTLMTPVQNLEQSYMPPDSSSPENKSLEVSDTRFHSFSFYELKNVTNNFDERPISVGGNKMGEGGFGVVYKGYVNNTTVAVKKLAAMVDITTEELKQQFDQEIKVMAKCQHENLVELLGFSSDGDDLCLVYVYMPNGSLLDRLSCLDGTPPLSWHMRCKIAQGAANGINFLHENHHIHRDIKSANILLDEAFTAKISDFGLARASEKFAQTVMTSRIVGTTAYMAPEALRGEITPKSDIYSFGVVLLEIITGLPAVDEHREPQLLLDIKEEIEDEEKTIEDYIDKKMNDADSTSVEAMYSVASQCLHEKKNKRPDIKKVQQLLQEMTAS

[1] = read-out: IRAK4 HiBit Dmax, C-terminal HiBiT-tagged Jurkat cells, 4 hrs, Tables 2-3
[2] = read-out: IRAK4 HiBit DC50, C-terminal HiBiT-tagged Jurkat cells, 4 hrs, Tables 2-3
[3] = read-out: Cellular IRAK4 HiBiT: Dmax, Table 4, HiBiT-tagged Jurkat cells, 4 hrs
[4] = read-out: Cellular IRAK4 HiBiT: Dmax, Table 5, multiple runs, HiBiT-tagged Jurkat cells, 4 hrs
[5] = read-out: Cellular IRAK4 HiBiT: DC50, Table 4, HiBiT-tagged Jurkat cells, 4 hrs
[6] = read-out: Cellular IRAK4 HiBiT: DC50, Table 5, multiple runs, HiBiT-tagged Jurkat cells, 4 hrs

IRAK1, sequence (P51617 whole entry): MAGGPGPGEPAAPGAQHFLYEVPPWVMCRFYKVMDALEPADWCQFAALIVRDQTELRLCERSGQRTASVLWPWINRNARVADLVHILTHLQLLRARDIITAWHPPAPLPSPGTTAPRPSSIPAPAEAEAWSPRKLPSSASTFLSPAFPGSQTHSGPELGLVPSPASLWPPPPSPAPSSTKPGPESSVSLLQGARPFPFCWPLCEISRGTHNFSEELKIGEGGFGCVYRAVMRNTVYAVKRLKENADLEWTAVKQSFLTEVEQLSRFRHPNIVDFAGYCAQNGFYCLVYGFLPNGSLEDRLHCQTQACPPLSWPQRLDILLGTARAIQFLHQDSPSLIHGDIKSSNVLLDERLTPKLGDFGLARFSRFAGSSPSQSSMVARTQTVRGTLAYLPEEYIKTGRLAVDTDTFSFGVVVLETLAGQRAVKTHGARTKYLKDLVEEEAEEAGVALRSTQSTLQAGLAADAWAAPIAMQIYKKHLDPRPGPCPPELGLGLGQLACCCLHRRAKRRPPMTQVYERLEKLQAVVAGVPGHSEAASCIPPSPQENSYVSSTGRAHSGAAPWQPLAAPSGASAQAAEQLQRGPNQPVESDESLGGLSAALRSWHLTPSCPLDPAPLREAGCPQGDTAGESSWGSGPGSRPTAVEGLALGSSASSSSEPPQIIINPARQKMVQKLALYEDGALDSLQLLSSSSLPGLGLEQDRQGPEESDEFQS

| Structure (SMILES) | DC50 (IRAK1) [nM] | DC50 (GSPT1) [nM] | DC50 (Ikaros) [nM] | Ikaros (CRBN neosubstrate) degradation, in words (Ikaros) | EC50 (Jurkat cells) [nM] | Dmax (IRAK4; [1]) [%] | DC50 (IRAK4; [2]) [nM] | Dmax (IRAK4; [3]) [%] | Dmax (IRAK4; [4]) [%] | DC50 (IRAK4; [5]) [nM] | DC50 (IRAK4; [6]) [nM] |
| --- | --- | --- | --- | --- | --- | --- | --- | --- | --- | --- | --- |
| NC(=O)c1nn(-c2ccc(C(=O)NCCOCCOCCNc3cccc4c3C(=O)N(C3CCC(=O)NC3=O)C4=O)cc2)cc1NC(=O)c1coc(-c2ccnc(NCC(F)(F)F)c2)n1 (stereo not drawn) [Comparative Compound a2, reference compound] | > 10000 | > 10000 | 20 | induced neosubstrate degradation; also recorded: degraded both Ikaros and Aiolos | > 10000 | 88 | 26 |  |  |  |  |
| CC[C@@H]1[C@H](F)C(=O)N[C@@H]1COc1ncc(C#CCN2CCC3(CC2)CCN(c2ncc(C(=O)N[C@H](C(=O)N4C[C@H](O)C[C@H]4C(=O)NCc4ccc(-c5scnc5C)cc4)C(C)(C)C)cn2)CC3)c2cc(C(N)=O)c(OC)cc12 [Comparative b1, reference compound] | > 10000 | > 10000 | > 5000 |  | > 10000 | 95 | 204 |  |  |  |  |
| CC(C)Nc1cc(-c2ccc3cc(C#N)cnn23)ncc1-c1nnc(N2CCN(C(=O)C3CCN(Cc4ccc5c(c4)C(=O)N(C4CCC(=O)NC4=O)C5=O)CC3)CC2)s1 (stereo not drawn) [Example 13, 7-(5-(5-(4-(1-((2-(2,6-dioxopiperidin-3-yl)-1,3-dioxoisoindolin-5-yl)methyl)piperidine-4-carbonyl)piperazin-1-yl)-1,3,4-thiadiazol-2-yl)-4-(isopropylamino)pyridin-2-yl)pyrrolo[1,2-b]pyridazine-3-carbonitrile] | > 10000 | > 10000 | > 5000 | none of Compounds 13, 24, 47, and 35 displayed neosubstrate degradation | > 10000 | 101 | 26 | 101 | 100 | 25.6 | 27 |
| CC(C)Nc1cc(-c2ccc3cc(C#N)cnn23)ncc1-c1nnc(N2CCN(C(=O)C3CCN(CC4CCN(c5ccc(-c6nn(C7CCC(=O)NC7=O)c(=O)n6C)cc5)CC4)CC3)CC2)s1 (stereo not drawn) [Example 24, 7-(5-(5-(4-(1-((1-(4-(1-(2,6-dioxopiperidin-3-yl)-4-methyl-5-oxo-4,5-dihydro-1H-1,2,4-triazol-3-yl)phenyl)piperidin-4-yl)methyl)piperidine-4-carbonyl)piperazin-1-yl)-1,3,4-thiadiazol-2-yl)-4-(isopropylamino)pyridin-2-yl)pyrrolo[1,2-b]pyridazine-3-carbonitrile] | > 10000 | > 10000 | > 5000 | none of Compounds 13, 24, 47, and 35 displayed neosubstrate degradation | > 10000 | 102 | 327 | 102 | 112 | 327 | 310 |
| Cc1ncsc1-c1ccc(CNC(=O)[C@@H]2C[C@@H](O)CN2C(=O)[C@@H](NC(=O)CCCC(=O)N2CCN(c3nnc(-c4cnc(-c5ccc6cc(C#N)cnn56)cc4NC(C)C)s3)CC2)C(C)(C)C)cc1 [Example 35, (2S,4R)-1-((S)-2-(5-(4-(5-(6-(3-cyanopyrrolo[1,2-b]pyridazin-7-yl)-4-(isopropylamino)pyridin-3-yl)-1,3,4-thiadiazol-2-yl)piperazin-1-yl)-5-oxopentanamido)-3,3-dimethylbutanoyl)-4-hydroxy-N-(4-(4-methylthiazol-5-yl)benzyl)pyrrolidine-2-carboxamide] | > 10000 | > 10000 | > 5000 | none of Compounds 13, 24, 47, and 35 displayed neosubstrate degradation | > 10000 | 100 | 590 | 100 | 100 | 590 | 235 |
| Cc1ncsc1-c1ccc(CNC(=O)[C@@H]2C[C@@H](O)CN2C(=O)[C@@H](NC(=O)C2(F)CC2)C(C)(C)C)c(OCCOCCC(=O)N2CCN(c3nnc(-c4cnc(-c5ccc6cc(C#N)cnn56)cc4NC(C)C)s3)CC2)c1 [Example 47, (2S,4R)—N-(2-(2-(3-(4-(5-(6-(3-cyanopyrrolo[1,2-b]pyridazin-7-yl)-4-(isopropylamino)pyridin-3-yl)-1,3,4-thiadiazol-2-yl)piperazin-1-yl)-3-oxopropoxy)ethoxy)-4-(4-methylthiazol-5-yl)benzyl)-1-((S)-2-(1-fluorocyclopropane-1-carboxamido)-3,3-dimethylbutanoyl)-4-hydroxypyrrolidine-2-carboxamide] | > 10000 | > 10000 | > 5000 | none of Compounds 13, 24, 47, and 35 displayed neosubstrate degradation | > 10000 | 118 | 144 | 118 | 118 | 144 | 144 |
